Holding throughout (type): in vivo
Assay [1] has as its system Lolium multiflorum (LOLMU). The assay can be described thus: Comparative tests against non-claimed structural analogues, % visual injury. Particulars: rate 125 g/ha. On the procedure: (§1) Selected compounds of the invention were also assessed in comparative tests (Table 5) against structural analogues not according to the invention (e.g. a compound containing an imidazole and one containing an oxazole, neither of which fall within the scope of the claimed invention). In each test, compounds were applied at a rate of 125 g/ha. Test 1 compared the efficacy of a compound of the invention (93) with a non-claimed structure which contains an unsubstituted triazole (105). […] Test 2 compared the efficacy of compound 93 with compound 104, which contains an imidazole and is therefore not according to the invention. […] Test 3 compared the efficacy of compound 43, a further compound according to the invention, with compound 103, which contains an oxazole not according to the invention.

Assay [2] concerns Veronica persica (VERPE). The description is as above. The settings on record: rate 125 g/ha. On the procedure:
as §1

Assay [3] relates to Amaranthus retroflexus (AMARE). The assay is described as above. The settings on record: rate 125 g/ha. The protocol:
as §1

Assay [4] relates to Echinochloa crus-galli (ECHCG). The description is as above. The settings on record: rate 125 g/ha. On the procedure:
as §1

Assay [5] has as its system Lolium multiflorum (LOLMU). The assay can be described thus: Post-emergence herbicidal test, % visual injury. The settings on record: 336 h, 14±1 days post application; for pest or weed control at 1000 g/ha: rate 1000 g/ha; for pest or weed control at 500 g/ha: rate 500 g/ha. On the procedure: (§2) Seeds of a variety of test species are grown in a sandy loam soil mixture, Lolium multiflorum (LOLMU), Amaranthus retroflexus (AMARE), Echinochloa crus-galli (ECHCG), Veronica persica (VERPE).
(§3) After sowing, at growth stage BBCH 12-14 (post-emergence), the plants are sprayed with an aqueous spray solution derived from the formulation of the technical active ingredient in acetone/water (50:50) solution containing 0.5% Tween 20 (polyoxyethlyene sorbitan monolaureate, CAS RN 9005-64-5). The test compounds are applied at the required concentration of active ingredient in g/ha. The test plants are then grown in a glasshouse under controlled environmental conditions and watered regularly as required. After 14±1 days post application (for post-emergence test), the test is evaluated by assessing the percentage damage caused to the plants in comparison with the untreated plots. The biological activities for post-emergence testing are shown below (Table 3) as a % visual injury.

The test system of assay [6] is Veronica persica (VERPE). Kind of assay: Post-emergence herbicidal test, % visual injury. Particulars: 336 h, 14±1 days post application; for pest or weed control at 1000 g/ha: rate 1000 g/ha; for pest or weed control at 500 g/ha: rate 500 g/ha. The protocol:
as §2, §3

The subject of assay [7] is Amaranthus retroflexus (AMARE). Kind of assay: Post-emergence herbicidal test, % visual injury. Particulars: 336 h, 14±1 days post application; for pest or weed control at 1000 g/ha: rate 1000 g/ha; for pest or weed control at 500 g/ha: rate 500 g/ha. The protocol: as §2, §3
The subject of assay [8] is Echinochloa crus-galli (ECHCG). The assay can be described thus: Post-emergence herbicidal test, % visual injury. Particulars: 336 h, 14±1 days post application; for pest or weed control at 1000 g/ha: rate 1000 g/ha; for pest or weed control at 500 g/ha: rate 500 g/ha. On the procedure: as §2, §3
In assay [9] the test system is Lolium multiflorum (LOLMU). The assay can be described thus: Pre-emergence herbicidal test, % visual injury. The settings on record: 336 h, rate 1000 g/ha, 14±1 days post-emergence in untreated plots. The protocol:
(§4) Pre-emergence testing was also performed using the same test species grown in a sandy loam soil mixture, Lolium multiflorum (LOLMU), Amaranthus retroflexus (AMARE), Echinochloa crus-galli (ECHCG), Veronica persica (VERPE).
(§5) After sowing, at growth stage BBCH 00-07 (pre-emergence), the plants are sprayed with an aqueous spray solution derived from the formulation of the technical active ingredient in acetone/water (50:50) solution containing 0.5% Tween 20 (polyoxyethlyene sorbitan monolaureate, GAS RN 9005-64-5). The test compounds are applied at the required […] concentration of active ingredient in g/ha. The test plants are then grown in a glasshouse under controlled environmental conditions and watered regularly as required. After 14±1 days post-emergence in untreated plots (for the pre-emergence test), the test is evaluated by assessing the percentage damage caused to the plants in comparison with the untreated plots. The biological activities for pre-emergence testing are shown below (Table 4) in the following table as a % visual injury.

For assay [10], the system named is Veronica persica (VERPE). The assay can be described thus: Pre-emergence herbicidal test, % visual injury. The settings on record: 336 h, rate 1000 g/ha, 14±1 days post-emergence in untreated plots. On the procedure: as §4, §5
The subject of assay [11] is Amaranthus retroflexus (AMARE). Kind of assay: Pre-emergence herbicidal test, % visual injury. Particulars: rate 1000 g/ha, 14±1 days post-emergence in untreated plots. The protocol:
as §4, §5

For assay [12], the system named is Echinochloa crus-galli (ECHCG). The assay can be described thus: Pre-emergence herbicidal test, % visual injury. The settings on record: 336 h, rate 1000 g/ha, 14±1 days post-emergence in untreated plots. On the procedure: as §4, §5

For the compound `O=C(COc1ccc(F)cc1Cl)Nc1nnc[nH]1` [Compound 105], the “LOLMU % visual Injury” value in [1] is on record as 0%. Besides, the “VERPE % visual Injury” value in the assay with Veronica persica (VERPE) [2] was found to be 40%. The “AMARE % visual Injury” value in [3] worked out at 50%. Further, the “ECHCG % visual Injury” value in assay [4] is 20%.

A word on the pest or weed control: it is how far the test organism was held down. Read a low pest or weed control as a weak effect. As to `Cc1cc(Cl)ccc1OCC(=O)Nc1nnc(C(F)(F)F)[nH]1` [Compound 35], the pest or weed control at 1000 g/ha in [5] was determined as 20%; with Veronica persica (VERPE) [6], 60%; in [7], 80%; in [8], 30%; in [9] it was 0%; in the assay on Veronica persica (VERPE) [10], 0%. Besides, in assay [12], the pest or weed control at 1000 g/ha was determined as 80%. For the same compound, the “AMARE % visual Injury” value in [11] is on record as 20%.

On to `Cc1cc(Cl)ccc1OCCCC(=O)Nc1nnc(C(F)(F)F)[nH]1` [Compound 29], for which the pest or weed control at 500 g/ha in [5] turned out to be 60%; in the assay with Veronica persica (VERPE) [6] it was 80%; in assay [7], 60%; in assay [8], 0%. Also, the pest or weed control at 1000 g/ha in [9] worked out at 20%; in the assay on Veronica persica (VERPE) [10], 0%; in [12] it was 0%.

Regarding `O=C(CCCOc1ccc(Cl)cc1Cl)Nc1nnc(C(F)(F)F)[nH]1` [Compound 28, 4-(2,4-dichlorophenoxy)-N-[5-(trifluoromethyl)-4H-1,2,4-triazol-3-yl]butanamide], the pest or weed control at 500 g/ha in assay [5] was found to be 0%; in the assay on Veronica persica (VERPE) [6] it was 60%; in assay [7], 70%; in assay [8], 10%. The pest or weed control at 1000 g/ha came out at 40% in assay [9], 0% in the assay with Veronica persica (VERPE) [10] and 0% in [12].

Regarding `Cn1nnnc1NC(=O)COc1ccc(F)cc1Cl` [Compound 25], the pest or weed control at 500 g/ha is 70% in assay [5], 70% with Veronica persica (VERPE) [6], 40% in assay [7] and 0% in assay [8]. Moreover, the pest or weed control at 1000 g/ha in assay [9] was found to be 0%; in the assay with Veronica persica (VERPE) [10] it was 10%; in assay [12], 10%.

As to `Cc1nnc(NC(=O)COc2ccc(F)cc2Cl)o1` [Compound 26], the pest or weed control at 500 g/ha in assay [5] turned out to be 50%; in the assay with Veronica persica (VERPE) [6], 95%; in assay [7], 90%; in assay [8] it was 90%. Besides, the pest or weed control at 1000 g/ha worked out at 50% in assay [9], 0% in the assay on Veronica persica (VERPE) [10] and 30% in [12].

Turning to `O=C(COc1ccc(F)cc1Cl)Nc1nnc(C(F)(F)F)o1` [Compound 43], the “LOLMU % visual Injury” value in [1] is listed as 50%. In addition, in the assay on Veronica persica (VERPE) [2], the “VERPE % visual Injury” value is on record as 70%. For the same compound, in assay [3], the “AMARE % visual Injury” value was determined as 70%. Besides, the “ECHCG % visual Injury” value in assay [4] is given as 30%.

As to `O=C(COc1ccc(F)cc1Cl)Nc1nnc(C(F)(F)F)[nH]1` [Compound 93], the pest or weed control at 500 g/ha in assay [5] is 70%; with Veronica persica (VERPE) [6], 90%; in assay [7] it was 100%; in [8], 80%. In addition, the “LOLMU % visual Injury” value in assay [1] was found to be 20%. In the assay on Veronica persica (VERPE) [2], the “VERPE % visual Injury” value is 80%. Besides, in [3], the “AMARE % visual Injury” value worked out at 60%. Besides, the “ECHCG % visual Injury” value in [4] came out at 30%.

For the compound `O=C(COc1ccc(Cl)cc1Cl)Nc1nnc(C(F)(F)F)[nH]1` [Compound 36], the pest or weed control at 1000 g/ha in [5] was 40%; in the assay on Veronica persica (VERPE) [6], 98%; in assay [7], 99%; in [8], 30%; in assay [9], 0%; in the assay with Veronica persica (VERPE) [10] it was 0%. The same compound had a pest or weed control at 1000 g/ha in assay [12] of 40%. Besides, in [11], the “AMARE % visual Injury” value turned out to be 40%.

With `O=C(COc1c(Cl)cccc1Cl)Nc1nnc(C(F)(F)F)[nH]1` [Compound 9], the pest or weed control at 500 g/ha in assay [5] was 0%; with Veronica persica (VERPE) [6], 0%; in assay [7], 20%; in assay [8], 0%.

Turning to `CC(Oc1ccc(F)cc1Cl)C(=O)Nc1nnc(C(F)(F)F)[nH]1` (stereo not shown) [Compound 32], the pest or weed control at 1000 g/ha in assay [9] was determined as 0%; with Veronica persica (VERPE) [10], 5%; in assay [12], 0%.

For `O=C(COc1ccc2c(c1)NC(=O)CC2)Nc1nc(C(F)(F)F)n[nH]1` [Compound 90], the pest or weed control at 500 g/ha in assay [5] is 0%; in the assay with Veronica persica (VERPE) [6], 70%; in [7], 0%; in [8] it was 0%.

Consider `O=C(COc1ccc(F)cc1Cl)Nc1nnc(C(F)F)[nH]1` [Compound 14], for which the pest or weed control at 500 g/ha in assay [5] came out at 60%; in the assay on Veronica persica (VERPE) [6] it was 60%; in assay [7], 100%; in assay [8], 90%.

On to `O=C(CCCOc1ccc(F)cc1Cl)Nc1nnc(C(F)(F)F)[nH]1` [Compound 30, 4-(2-chloro-4-fluorophenoxy)-N-[5-(trifluoromethyl)-4H-1,2,4-triazol-3-yl]butanamide], for which the pest or weed control at 500 g/ha came out at 70% in [5], 60% in the assay with Veronica persica (VERPE) [6], 80% in assay [7] and 30% in [8]. Moreover, the pest or weed control at 1000 g/ha in assay [9] amounted to 60%; with Veronica persica (VERPE) [10] it was 0%; in assay [12], 0%.

As to `O=C(COc1ccc(F)cc1Cl)Nc1ncc(C(F)(F)F)[nH]1` [Compound 104], in [1], the “LOLMU % visual Injury” value is on record as 10%. Also, the “VERPE % visual Injury” value in the assay with Veronica persica (VERPE) [2] turned out to be 70%. The “AMARE % visual Injury” value in assay [3] was 40%. Also, the “ECHCG % visual Injury” value in assay [4] is reported as 30%.

Regarding `CS(=O)(=O)c1ccc(OCC(=O)Nc2nnc(C(F)(F)F)[nH]2)cc1` [Compound 13], the pest or weed control at 500 g/ha worked out at 60% in assay [5], 80% in the assay on Veronica persica (VERPE) [6], 60% in [7] and 0% in [8].

On to `Cn1c(NC(=O)COc2ccc(F)cc2Cl)nnc1C(F)(F)F` [Compound 40], for which the pest or weed control at 500 g/ha came to 60% in assay [5], 100% with Veronica persica (VERPE) [6], 100% in assay [7] and 70% in assay [8].

As to `O=C(COc1ccc(F)cc1Cl)Nc1ncc(C(F)(F)F)o1` [Compound 103], the “LOLMU % visual Injury” value in assay [1] is given as 20%. In the assay with Veronica persica (VERPE) [2], the “VERPE % visual Injury” value stood at 50%. In addition, the “AMARE % visual Injury” value in assay [3] is given as 50%. Moreover, the “ECHCG % visual Injury” value in assay [4] is reported as 30%.

As to `CC(Oc1cccc(Cl)c1)C(=O)Nc1nnn[nH]1` (stereo not shown) [Compound 98], the pest or weed control at 250 g/ha in assay [5] (rate 250 g/ha) was determined as 10%; in the assay on Veronica persica (VERPE) [6] (rate 250 g/ha) it was 20%; in assay [7] (rate 250 g/ha) it was 0%; in [8] (rate 250 g/ha), 0%.

For the compound `O=C(COc1ccc(F)c(Cl)c1)Nc1nnc(C(F)(F)F)[nH]1` [Compound 5], the pest or weed control at 500 g/ha was found to be 0% in [5], 98% with Veronica persica (VERPE) [6], 80% in [7] and 30% in assay [8].

The record behind these values is US20230255205A1, “HERBICIDAL HETEROCYCLIC DERIVATIVES” (MoA Technology Limited, priority 2020, published 2023).
